Source: the NIST ThermoML archive (doi:10.1016/j.fluid.2013.06.021)
Numbers after ± are expanded uncertainties.

Conditions: 298.15 K, 101.33 kPa, Liquid; for viscosity: Capillary tube (Ostwald / Ubbelohde) method; for speed of sound: Sing-around technique in a fixed-path interferometer; for mass density: Vibrating tube method

viscosity [mPa·s]	speed of sound [m/s]	mass density [kg/m3]	SMILES
2.625 ± 0.12	1240.6 ± 0.71	805.986 ± 0.12	CCCCO [butan-1-ol]
3.075 ± 0.12	1213.3 ± 0.81	802.563 ± 0.14	CCC(C)O (stereo not given) [butan-2-ol]
1.984 ± 0.12	1207 ± 0.8	800.13 ± 0.14	CCCO [propan-1-ol]
2.111 ± 0.12	1140.6 ± 0.64	781.588 ± 0.12	CC(C)O [propan-2-ol]

SMILES	viscosity [mPa·s]	speed of sound [m/s]	mass density [kg/m3]
CCCCOCCO [2-butoxyethan-1-ol]	2.885 ± 0.12	1306 ± 0.7	896.312 ± 0.083
